Test results reported in patent publication US20230416684A1, “COMPOSITION FOR PREVENTING OR TREATING MUSCLE DISEASES, CONTAINING STEM CELLS IN WHICH GRO-ALPHA IS EXPRESSED OR GRO-ALPHA” (SAMSUNG LIFE PUBLIC WELFARE FOUNDATION, priority 2020, published 2023).

Key:
C2C12 cells [1] = assay: Cell morphology and cell viability of lovastatin death-induced C2C12 cells treated with GSK′872 and GRO-α individually or in combination; format: cell-based, mouse; settings: GRO-α 200 μg/mL; for cell proliferation (cell morphology) / cell viability: GSK 3 μm pretreatment 3 hours; for cell proliferation (cell morphology): cultured for 48, FIG. 5A; for cell viability: cultured for 48, FIG. 5B
Protocol: Inhibitory effects of GSK′827 and GRO-α, known as […] that block the RIP-3 pathway, on cell death of skeletal muscle myoblasts were compared. In detail, skeletal muscle myoblasts of the cell death-induced mouse by lovastatin treatment were pretreated with 3 μm of GSK′827 for 3 hours, followed by washing with 1×PBS. The medium was replaced by a serum-free medium, and GRO-α was diluted therein to a final concentration of […]/mL. Then, the cells were treated with GRO-α and GSK′827 individually or in combination, followed by culturing for 48 to observe the cell morphology.

C2C12 cells [2] = assay: Cell morphology and cell viability of lovastatin death-induced C2C12 cells treated with GRO-α at different concentrations; format: cell-based, mouse
[3] = system: necrosis markers in C2C12 cells; assay: Western blotting of necrosis markers in lovastatin death-induced C2C12 cells treated with GRO-α at different concentrations; format: cell-based, mouse; settings: FIGS. 4C and 4D
Protocol: To confirm the inhibitory effects of the PL-MSCs and WJ-MSCs on the cell death, apoptosis markers and necrosis markers expressed in the mouse skeletal muscle myoblasts were confirmed by western blotting. In detail, after collecting the cells and breaking the cell membrane by using a buffer in which RIPA buffer and urea buffer were mixed at a ratio of 1:1, centrifugation was performed thereon, and the supernatant thus obtained was collected and subjected to the Bradford assay (Bio-rad, USA) to quantify proteins in the cells. After loading 20 μg of the proteins of from each sample on a gel, electrophoresis was performed on the gel by using SDS. After transferring the proteins to a polyvinylidene fluoride (PVDF) membrane, a 1× tris-buffered saline with 0.1% Tween 20 (TBST) solution to which 5% skimmed milk (BD Difco, USA) was added, followed by culturing at room temperature for 1 hour. Afterwards, the proteins were treated with PARP (1:1000, Cell signaling, USA), cleaved caspase-3 (1:1000, Cell signaling, USA), phospho-RIP3 (1:1000, Cell signaling, USA), and phospho-MLKL (1:1000, Cell signaling, USA) and beta actin (1:5000; Santa Cruz, USA) antibodies, followed by culturing overnight at 4° C. Next, the proteins were treated with secondary antibodies (anti-Rabbbit IgG-HRP; ABCIon, Korea) at room temperature for 1 hour, and blots were developed by using ECL (Bio-rad, USA). […]

[4] = system: necrosis markers in C2C12 cells; assay: Western blotting of necrosis markers in lovastatin death-induced C2C12 cells treated with GSK′872 and GRO-α individually or in combination; format: cell-based, mouse; settings: FIGS. 5C and 5D
[5] = system: MDX mouse (a mouse model for duchenne muscular dystrophy); assay: Activity of creatine kinase in serum of MDX mouse injected with WJ-MSC or GRO-α; format: in vivo; settings: intravenous and intraperitoneal injection, serum after one week, FIG. 6A
Protocol: (§1) Based on the results of Examples 1 to 3, the efficacy of GRO-α on prevention or treatment of muscle diseases was confirmed in an MDX mouse (a mouse model for duchenne muscular dystrophy). In detail, the MDX mouse was intravenously and intraperitoneally injected with each of WJ-MSC and GRO-α. After one week, blood was collected from the heart of the mouse, centrifuged at 15,500×g for 10 minutes to separate serum, and then, activity of creatine kinase was measured.

phospho-MLKL = assay: Western blot of phospho-MLKL in muscles of MDX mouse injected with WJ-MSCs or GRO-α; format: in vivo; settings: muscles of MDX mouse after injection; protein level, FIG. 6B
Protocol: as §1
(§2) The expression levels of necrosis markers in muscles of the […] injected with WJ-MSCs and GRO-α were confirmed in Example 4-1. In detail, the muscle tissue of the mouse was ground with liquid nitrogen into a minimum size in a mortar, added to an E-tube, and then subjected to sonication with lysis buffer (urea+RIPA=1:1). Afterwards, the supernatant was collected, and proteins in the tissue were quantified according to the Bradford assay (Bio-rad, USA). Then, proteins were detected by using western blot.

phospho-RIP3 = assay: Western blot of phospho-RIP3 in muscles of MDX mouse injected with WJ-MSCs or GRO-α; format: in vivo; settings: muscles of MDX mouse after injection; protein level, FIG. 6C
Protocol: as §1, §2

Compound | cell proliferation (cell morphology) (C2C12 cells [1]) | cell viability (C2C12 cells [1]) | cell viability, among concentration groups (C2C12 cells [2]; group treated with 100 ng/mL of GRO-α, FIG. 4B) | cell proliferation rate (C2C12 cells [2]; lovastatin death-induced C2C12 cells treated with GRO-α, FIG. 4A) | cell viability (C2C12 cells [2]; lovastatin death-induced C2C12 cells, after 24 hours of treatment with GRO-α, FIG. 4B) | expression of necrosis markers [3] | cell viability compared to the group treated with GSK′872 (C2C12 cells [1]; FIG. 5B) | inhibitory effect on the expression of necrosis markers compared to GSK′872 [4] | expression of markers involved in necrosis compared to the control group ([4]; GRO-α 200 μg/mL) | activity of creatine kinase, decrease [5] [%] | expression of phospho-MLKL, decrease (phospho-MLKL) [%] | expression of phospho-RIP3, decrease (phospho-RIP3) [%]
CC(C)S(=O)(=O)c1ccc2nccc(Nc3ccc4scnc4c3)c2c1 [GSK′872, reference compound] | proliferated | significant increase | – | – | – | – | – | – | – | – | – | –
growth-regulated oncogene-alpha (GRO-α) | proliferated | significant increase | the highest | increased | significantly increased | inhibited the expression of the necrosis markers in a concentration-dependent manner | high | excellent inhibitory effect | reduced the expression of all markers involved in necrosis | 75 | 76 | 70
